# Structures can show the parent of a compound that is named as a salt.
# Assay: collision cross section in nitrogen (drift tube, single-field); higher = larger gas-phase ion size
# [1] = ion type: [M-H], ion source: ESI, ion mode: Negative
# [2] = ion type: [M+H], ion source: ESI, ion mode: Positive
# [3] = ion type: [M+Na], ion source: ESI, ion mode: Positive
# [4] = ion type: [M+H], ion source: APCI, ion mode: Positive
# [5] = ion type: [M+], ion source: APCI, ion mode: Positive
# 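Also: chemical standards at 10 µM analysed by drift tube IMS-QTOF MS in about 3.95 torr nitrogen, mean of duplicate injections differing ≤1%, mass error below 10 ppm.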
Structure (SMILES),collision cross section in nitrogen [1] [Å²],collision cross section in nitrogen [2] [Å²],also measured
"Oc1ccc(Cl)cc1Cl [2,4-Dichlorophenol]",123.6,–,–
"O=[N+]([O-])c1ccc(O)c([N+](=O)[O-])c1 [2,4-Dinitrophenol]",127.8,–,–
"COCCOCCOCCOCCOC [2,5,8,11,14-Pentaoxapentadecane]",–,–,collision cross section in nitrogen [3]: 147.3 Å²
"CC(C)(C)c1cc(O)c(C(C)(C)C)cc1O [2,5-Di-tert-butylbenzene-1,4-diol]",–,–,collision cross section in nitrogen [5]: 155.1 Å²
"Oc1cc(Cl)ccc1Cl [2,5-Dichlorophenol]",123.3,–,–
"CCC(C)c1cccc(C(C)CC)c1O (configuration not stated) [2,6-Di(butan-2-yl)phenol]",151.4,–,–
"CC(C)(C)c1cc([N+](=O)[O-])cc(C(C)(C)C)c1O [2,6-Di-tert-butyl-4-nitrophenol]",162.2,–,–
"Nc1c(Br)cc([N+](=O)[O-])cc1Br [2,6-Dibromo-4-nitroaniline]",134.9,–,–
"CC(C)c1cccc(C(C)C)c1N [2,6-Diisopropylaniline]",–,–,collision cross section in nitrogen [4]: 146.6 Å²
"CCCCCCCCCCCCCN1CC(C)OC(C)C1 (configuration not stated) [2,6-Dimethyl-4-tridecylmorpholine]",–,183.5,–
"Cc1cccc2sc3nncn3c12 [2,7,8,9-Tricyclazole]",–,134,collision cross section in nitrogen [4]: 136.3 Å²; collision cross section in nitrogen [3]: 153.5 Å²
CCCC(C)c1ccccc1O (configuration not stated) [2-(1-Methylbutyl)phenol],138.6,–,–
"CC(C)(C)c1cc(-n2nc3ccccc3n2)c(O)c(C(C)(C)C)c1 [2-(2'-Hydroxy-3',5'-di-tert-butylphenyl)benzotriazole]",192.5,–,collision cross section in nitrogen [5]: 186 Å²
CCCCOCCOCCO [2-(2-Butoxyethoxy)ethanol],–,–,collision cross section in nitrogen [3]: 141.5 Å²
C=CC(=O)OCCOCCOCC [2-(2-Ethoxyethoxy)ethyl acrylate],–,–,collision cross section in nitrogen [3]: 142.6 Å²
OCCc1ccccn1 [2-(2-Pyridyl)ethanol],–,121.2,collision cross section in nitrogen [4]: 120.7 Å²
CCC(C)c1cc(C(C)(C)C)cc(-n2nc3ccccc3n2)c1O (configuration not stated) [2-(2H-Benzotriazol-2-yl)-6-(butan-2-yl)-4-tert-butylphenol],192.5,–,collision cross section in nitrogen [4]: 187.2 Å²

Structure (SMILES),collision cross section in nitrogen [1] [Å²],collision cross section in nitrogen [2] [Å²],also measured
c1ccc(CCCc2ccccn2)cc1 [2-(3-Phenylpropyl)pyridine],–,141.1,collision cross section in nitrogen [4]: 140.8 Å²
Cc1cc(Cl)ccc1OCC(=O)O [2-(4-Chloro-2-methylphenoxy)acetic acid],146.1,–,–
CC(C)(C)c1ccc(OC2CCCCC2O)cc1 (configuration not stated) [2-(4-tert-Butylphenoxy)cyclohexanol],–,–,collision cross section in nitrogen [3]: 179.8 Å²
CCCCCCCCC=CCCCCCCCC1=NCCN1CCO [2-(8-Heptadecenyl)-2-imidazoline-1-ethanol],196.6,199.8,collision cross section in nitrogen [4]: 199.3 Å²
C=C(C)C(=O)OCCOC(=O)CC(C)=O [2-(Methacryloyloxy)ethyl acetoacetate],–,–,collision cross section in nitrogen [3]: 147.6 Å²
CCN(CCO)c1cccc(C)c1 [2-(N-Ethyl-m-toluidino)ethanol],–,140.6,collision cross section in nitrogen [4]: 140 Å²
OCCc1ccncc1 [2-(Pyridin-4-yl)ethanol],–,124.3,collision cross section in nitrogen [4]: 124.6 Å²
C=CCOCC(CC)(CO)CO [2-Allyloxymethyl-2-ethylpropanediol],–,–,collision cross section in nitrogen [3]: 141.3 Å²
C=CCc1ccccc1O [2-Allylphenol],128.1,–,–
Nc1ccc(Cl)cc1C(=O)c1ccccc1 [2-Amino-5-chlorobenzophenone],150.4,–,–
N#Cc1cc([N+](=O)[O-])ccc1N [2-Amino-5-nitrobenzonitrile],125.1,–,–
CN(C1CCCCC1)S(=O)(=O)c1ccccc1N [2-Amino-N-cyclohexyl-N-methylbenzenesulfonamide],–,–,collision cross section in nitrogen [3]: 173.9 Å²
N#Cc1ccccc1N [2-Aminobenzonitrile],118,–,–
NCCOS(=O)(=O)O [2-Aminoethyl hydrogen sulfate],121.6,–,–
Oc1ccccc1Br [2-Bromophenol],120.2,–,–
"CCCCCCCCOC(=O)/C=C\C(=O)OCCCCCCCC [2-Butenedioic acid (2Z)-, dioctyl ester]",–,–,collision cross section in nitrogen [3]: 206.4 Å²

# Further lines, with some results ahead:
collision cross section in nitrogen [1] [Å²],collision cross section in nitrogen [2] [Å²],Structure (SMILES),also measured
131.4,–,"Nc1c(Cl)cc(Cl)cc1[N+](=O)[O-] [2,4-Dichloro-6-nitroaniline]",–
–,171.9,"O=C(Nc1ccc2ccccc2c1)c1ccc(Cl)cc1Cl [2,4-Dichloro-N-(naphthalene-2-yl)benzamide]",collision cross section in nitrogen [3]: 184.5 Å²
148.3,–,"O=C(c1ccccc1)c1ccc(O)cc1O [2,4-Dihydroxybenzophenone]",–
118.5,120.2,"Oc1ccnc(O)c1 [2,4-Dihydroxypyridine]",collision cross section in nitrogen [4]: 119.5 Å²
146.7,–,"CC(C)c1ccc(O)c(C(C)C)c1 [2,4-Diisopropylphenol]",–
138.3,–,"Cc1ccc(S(=O)(=O)O)c(C)c1 [2,4-Dimethylbenzenesulfonic acid]",–
–,140.8,"O=c1[nH]cc(S(=O)(=O)Cl)c(=O)[nH]1 [2,4-Dioxo-1,2,3,4-tetrahydropyrimidine-5-sulfonyl chloride]",–
–,145,"COc1cc(Cl)c(OC)cc1N [2,5-Dimethoxy-4-chloroaniline]",collision cross section in nitrogen [5]: 133 Å²
138.2,–,"Cc1ccc(C)c(S(=O)(=O)O)c1 [2,5-Dimethylbenzenesulfonic acid monohydrate]",–
138.2,–,"Cc1ccc(C)c(S(=O)(=O)O)c1 [2,5-Dimethylbenzenesulfonic acid]",–
160.4,–,"COc1cc(C(C)(C)C)c(O)c(C(C)(C)C)c1 [2,6-Di-tert-butyl-4-methoxyphenol]",collision cross section in nitrogen [5]: 157.2 Å²
–,119.8,"Nc1cccc(N)n1 [2,6-Diaminopyridine]",collision cross section in nitrogen [4]: 118.9 Å²
–,135.5,"Nc1cc(Cl)c(N)c(Cl)c1 [2,6-Dichloro-1,4-benzenediamine]",collision cross section in nitrogen [5]: 128.1 Å²
174.7,175.7,"CC(=O)Nc1ccc2c(c1)Cc1cc(NC(C)=O)ccc1-2 [2,7-Acetylaminofluorene]",collision cross section in nitrogen [4]: 176.3 Å²; collision cross section in nitrogen [3]: 180.9 Å²; collision cross section in nitrogen [5]: 167.4 Å²
182,–,"CC(C)c1cccc(C(C)C)c1N1C(=O)c2ccc(O)cc2C1=O [2-(2,6-Diisopropylphenyl)-5-hydroxy-1H-isoindole-1,3-dione]",–
155.4,–,Cc1ccc(O)c(-n2nc3ccccc3n2)c1 [2-(2H-Benzotriazol-2-yl)-4-methylphenol],–
174.2,171.7,Cc1ccc2nc(-c3ccc(N)cc3)sc2c1S(=O)(=O)O [2-(4-Aminophenyl)-6-methylbenzothiazole sulfonic acid],collision cross section in nitrogen [3]: 185.9 Å²

collision cross section in nitrogen [1] [Å²],collision cross section in nitrogen [2] [Å²],Structure (SMILES),also measured
–,145.5,"Cc1ccc(-c2nc3ccccc3o2)cc1 [2-(4-Methylphenyl)-1,3-benzoxazole]",collision cross section in nitrogen [4]: 145.3 Å²
–,162.2,CN(C)Cc1ccccc1O [2-((Dimethylamino)methyl)phenol],–
151.8,–,Nc1ccccc1S(=O)(=O)c1ccccc1 [2-(Phenylsulfonyl)aniline],–
141.5,–,C=CC(=O)NC(C)(C)CS(=O)(=O)O [2-Acrylamido-2-methyl-1-propanesulfonic acid],–
–,123,"Cc1cc(C)nc(N)n1 [2-Amino-4,6-dimethylpyrimidine]",collision cross section in nitrogen [4]: 123.7 Å²
–,123.4,"COc1nc(C)nc(N)n1 [2-Amino-4-methoxy-6-methyl-1,3,5-triazine]",collision cross section in nitrogen [4]: 122.7 Å²
135.3,–,"Nc1nnc(-c2ccc([N+](=O)[O-])o2)o1 [2-Amino-5-(5-nitro-2-furyl)-1,3,4-oxadiazole]",–
137.9,–,Cc1ccc(N)c(S(=O)(=O)O)c1 [2-Amino-5-methylbenzenesulfonic acid],–
125.3,–,Nc1ccc([N+](=O)[O-])cc1O [2-Amino-5-nitrophenol],–
130.1,–,Nc1cc([N+](=O)[O-])cc(Cl)c1O [2-Amino-6-chloro-4-nitrophenol],–
131.3,143.6,Nc1nc2ccc([N+](=O)[O-])cc2s1 [2-Amino-6-nitrobenzothiazole],collision cross section in nitrogen [4]: 144.1 Å²
140.8,–,CC(C)NC(=O)c1ccccc1N [2-Amino-N-(1-methylethyl)benzamide],–
144.9,–,Nc1ccc2c(c1)C(=O)c1ccccc1C2=O [2-Aminoanthraquinone],–
147.3,–,"Nc1cc(S(=O)(=O)O)ccc1S(=O)(=O)O [2-Aminobenzene-1,4-disulfonic acid]",–
123.5,126.8,Nc1nc2ccccc2[nH]1 [2-Aminobenzimidazole],collision cross section in nitrogen [4]: 126.2 Å²; collision cross section in nitrogen [5]: 123.9 Å²
–,131.4,"Nc1ccc(N)c(Cl)c1 [2-Chloro-1,4-diaminobenzene sulfate (1:1)]",–
